Measured values from patent publication US20250144085A1, “PHARMACEUTICAL COMPOSITION FOR PREVENTING OR TREATING CANCER COMPRISING OMEPRAZOLE BROWNING MATTER” (NEW CANCER CURE BIO CO., LTD, priority 2021, published 2025).

Tested on: pancreatic cancer (MIA PaCa2) cell line
Test: sulforhodamine B colorimetric assay (SRB assay) of cancer cell death
Assay type: cell-based
Details: 48 hours; for Cancer cell killing rate (%) by treatment with omeprazole (KN510) degradation substance: 0.1%; for Cancer cell growth rate following treatment with omeprazole (KN510) degradation substance, average(%): treated at a concentration of 0.1%
Procedure: In order to confirm the anticancer activity of the omeprazole (KN510) degradation substances (acid degradation substances) and base degradation substances prepared in Example 1 above, the cancer cell killing effect of each of the omeprazole (KN510) degradation substances was determined. The extent of cancer cell death was measured by sulforhodamine B colorimetric assay (SRB assay), which was performed as follows: A pancreatic cancer (MIA PaCa2) cell line (100 μ ? ) was inoculated into 96-well cell culture plates at a density ranging from 7,500 to 10,000 cells/well depending on the doubling time. Each of the omeprazole (KN510) degradation substances prepared in Example 1 above was treated at a concentration of 0.1% and incubated in a CO2 incubator for 48 hours, after which the assay was terminated by adding cold TCA. Cells were fixed intact by gently adding 50 μl of cold 50% (w/v) TCA (final concentration: 10% TCA) and incubated at 4° C. for 60 min. The supernatant was discarded, and the plate was washed five times with distilled water and then air dried. A solution (100 μl) of 0.4% (w/v) sulforhodamine B in 1% acetic acid was added to each well, and the plate was left at room temperature for 10 min. After staining, unbound dye was removed by washing five times with 1% acetic acid, and the plate was air-dried. The bound dye was then solubilized with 10 mM trizma base, and the absorbance was recorded at 515 nm using an automated plate reader. All experiments were performed in triplicate, and data were expressed as mean±standard deviation values.

With `COc1ccc2[nH]c([S+]([O-])Cc3ncc(C)c(OC)c3C)nc2c1` (centres unmarked) [omeprazole (KN510), omeprazole] as the molecule, how does the “Cancer cell killing rate (%) by treatment with omeprazole (KN510) degradation substance” value (“Cancer cell killing rate (%)” below) (compared to the control group using the values in Table 1) read?
The value was “about 32%”.

What about the “Cancer cell killing rate (%)” value (compared to the control group using the values in Table 1, listed as KN510 + 1M HCl 0 μl) of the same molecule?
Its value is 31.85%.

And the “Cancer cell killing rate (%)” value (compared to the control group using the values in Table 1, listed as KN510 + 1M NaOH 0 μl)?
Its value is 32.82%.

What about the “Cancer cell growth rate following treatment with omeprazole (KN510) degradation substance, average(%)” value (control = 100.00, listed as KN510 + 1M HCl 0 μl) of the same molecule?
Its value is 68.15%.

What about the “Cancer cell growth rate following treatment with omeprazole (KN510) degradation substance, average(%)” value (control = 100.00, listed as KN510 + 1M NaOH 0 μl) of the same molecule?
The value was 67.18%.
